Reference: patent US7851474B2, “Dipiperazinyl ketones and related analogues” (Neurogen Corporation, priority 2005, dated 2010)

target: T1, chimeric human H3 receptor (Homo sapiens, UniProt Q9Y5N1, E19D); assay: Chimeric human H3 receptor GTP binding assay (agonist-stimulated GTP-gamma35S binding, Example 7); type: biochemical; details: assay of Example 7; "*" in Ki of Table II; read-out: Ki
T1 construct: made in house; host or cells: Sf9 insect cells (baculovirus infection); P2 membrane preparation
T1 sequence (Q9Y5N1 with tags, fused parts or gaps E19D): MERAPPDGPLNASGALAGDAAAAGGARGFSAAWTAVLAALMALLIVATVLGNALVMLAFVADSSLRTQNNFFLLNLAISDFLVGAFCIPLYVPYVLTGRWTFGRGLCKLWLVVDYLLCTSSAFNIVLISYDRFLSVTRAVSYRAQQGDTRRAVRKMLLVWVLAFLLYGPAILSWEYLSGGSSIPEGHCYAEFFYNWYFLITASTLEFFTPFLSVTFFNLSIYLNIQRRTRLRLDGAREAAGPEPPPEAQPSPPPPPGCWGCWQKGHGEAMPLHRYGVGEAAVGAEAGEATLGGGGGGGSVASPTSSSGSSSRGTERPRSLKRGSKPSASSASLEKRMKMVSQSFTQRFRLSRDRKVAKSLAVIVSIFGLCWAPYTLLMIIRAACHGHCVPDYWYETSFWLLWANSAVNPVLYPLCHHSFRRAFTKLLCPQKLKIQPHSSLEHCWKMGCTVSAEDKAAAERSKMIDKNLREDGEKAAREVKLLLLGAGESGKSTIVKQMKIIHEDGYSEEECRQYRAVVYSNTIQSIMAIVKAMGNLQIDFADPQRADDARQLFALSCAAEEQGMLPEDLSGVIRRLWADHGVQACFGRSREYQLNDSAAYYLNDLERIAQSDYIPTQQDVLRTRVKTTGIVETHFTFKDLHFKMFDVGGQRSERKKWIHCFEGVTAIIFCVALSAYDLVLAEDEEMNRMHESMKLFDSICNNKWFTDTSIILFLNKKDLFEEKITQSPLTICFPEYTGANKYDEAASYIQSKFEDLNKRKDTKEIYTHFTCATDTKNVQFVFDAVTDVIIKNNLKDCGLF
Method in brief: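 IC50 values come from non-linear regression of dose-response curves of filter-bound GTP-gamma^35S, counted by scintillation. Membranes were from infected Sf9 cells carrying receptor plus G-protein subunits, 35 μg/tube, with 10 μM GDP present.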

Ki, < 1000 nM:
CC(C)NC(=O)c1ccc(N2CCN(CC(=O)N3CCN(C4CCC4)CC3)CC2)cc1 [Compound 1140, 4-{4-[2-(4-cyclobutylpiperazin-1-yl)-2-oxoethyl]piperazin-1-yl}-N-isopropylbenzamide]
O=C(NC1CCCC1)c1ccc(N2CCN(CC(=O)N3CCN(C4CCC4)CC3)CC2)cc1 [Compound 1141, 4-{4-[2-(4-cyclobutylpiperazin-1-yl)-2-oxoethyl]piperazin-1-yl}-N-cyclopentylbenzamide]
CCCC(C)NC(=O)c1ccc(N2CCN(CC(=O)N3CCN(C4CCC4)CC3)CC2)cc1 (centres unmarked) [Compound 1142, 4-{4-[2-(4-cyclobutylpiperazin-1-yl)-2-oxoethyl]piperazin-1-yl}-N-(1-methylbutyl)benzamide]
O=C(NC1CCCCCC1)c1ccc(N2CCN(CC(=O)N3CCN(C4CCC4)CC3)CC2)cc1 [Compound 1143, 4-{4-[2-(4-cyclobutylpiperazin-1-yl)-2-oxoethyl]piperazin-1-yl}-N-cycloheptylbenzamide]
O=C(NCC1CCCCC1)c1ccc(N2CCN(CC(=O)N3CCN(C4CCC4)CC3)CC2)cc1 [Compound 1144, 4-{4-[2-(4-cyclobutylpiperazin-1-yl)-2-oxoethyl]piperazin-1-yl}-N-(cyclohexylmethyl) benzamide]
CC(C)(C)CNC(=O)c1ccc(N2CCN(CC(=O)N3CCN(C4CCC4)CC3)CC2)cc1 [Compound 1145, 4-{4-[2-(4-cyclobutylpiperazin-1-yl)-2-oxoethyl]piperazin-1-yl}-N-(2,2-dimethylpropyl) benzamide]
CCC(CC)CNC(=O)c1ccc(N2CCN(CC(=O)N3CCN(C4CCC4)CC3)CC2)cc1 [Compound 1146, 4-{4-[2-(4-cyclobutylpiperazin-1-yl)-2-oxoethyl]piperazin-1-yl}-N-(2-ethylbutyl)benzamide]
N#Cc1ccc(N2CCN(CC(=O)N3CCN(C4CCCCC4)CC3)CC2)cc1 [Compound 1147, 4-{4-[2-(4-cyclohexylpiperazin-1-yl)-2-oxoethyl]piperazin-1-yl}benzonitrile]
N#Cc1ccc(N2CCN(CC(=O)N3CCN(C4CCCC4)CC3)CC2)cc1 [Compound 1148, 4-{4-[2-(4-cyclopentylpiperazin-1-yl)-2-oxoethyl]piperazin-1-yl}benzonitrile]
CC(C)N1CCN(C(=O)CN2CCN(c3ccc(C#N)cc3)CC2)CC1 [Compound 1149, 4-{4-[2-(4-isopropylpiperazin-1-yl)-2-oxoethyl]piperazin-1-yl}benzonitrile]
CCC(C)N1CCN(C(=O)CN2CCN(c3ccc(C#N)cc3)CC2)CC1 (centres unmarked) [Compound 1150, 4-{4-[2-(4-sec-butylpiperazin-1-yl)-2-oxoethyl]piperazin-1-yl}benzonitrile]
CC(C)(C)c1ccc(C(=O)NC2CCN(CC(=O)N3CCN(C4CCC4)CC3)C2)cc1 (centres unmarked) [Compound 1152, 4-tert-butyl-N-{1-[2-(4-cyclobutylpiperazin-1-yl)-2-oxoethyl]pyrrolidin-3-yl}benzamide]
O=C(CN1CCN(c2ccc(-c3cncnc3)cc2)CC1)N1CCN(C2CCC2)CC1 [Compound 1154, 5-(4-{4-[2-(4-cyclobutylpiperazin-1-yl)-2-oxoethyl]piperazin-1-yl}phenyl)pyrimidine]
CN1Cc2cc(N3CCN(CC(=O)N4CCN(C5CCC5)CC4)CC3)ccc2C1=O [Compound 1155, 5-{4-[2-(4-cyclobutylpiperazin-1-yl)-2-oxoethyl]piperazin-1-yl}-2-methylisoindolin-1-one]
O=C1OCc2cc(N3CCN(CC(=O)N4CCN(C5CCC5)CC4)CC3)ccc21 [Compound 1156, 5-{4-[2-(4-cyclobutylpiperazin-1-yl)-2-oxoethyl]piperazin-1-yl}-2-benzofuran-1(3H)-one]
O=C1CCc2cc(N3CCN(CC(=O)N4CCN(C5CCC5)CC4)CC3)ccc21 [Compound 1157, 5-{4-[2-(4-cyclobutylpiperazin-1-yl)-2-oxoethyl]piperazin-1-yl}indan-1-one]
N#Cc1cnc(N2CCN(CC(=O)N3CCN(C4CCC4)CC3)CC2)cn1 [Compound 1158, 5-{4-[2-(4-cyclobutylpiperazin-1-yl)-2-oxoethyl]piperazin-1-yl}pyrazine-2-carbonitrile]
O=C1OCc2cc(N3CCN(CC(=O)N4CCN(C5CCCC5)CC4)CC3)ccc21 [Compound 1159, 5-{4-[2-(4-cyclopentylpiperazin-1-yl)-2-oxoethyl]piperazin-1-yl}-2-benzofuran-1(3H)-one]
O=C1CCc2cc(N3CCN(CC(=O)N4CCN(C5CCCC5)CC4)CC3)ccc21 [Compound 1160, 5-{4-[2-(4-cyclopentylpiperazin-1-yl)-2-oxoethyl]piperazin-1-yl}indan-1-one]
CC(C)CN1CCN(C(=O)CN2CCN(c3ccc4c(c3)COC4=O)CC2)CC1 [Compound 1161, 5-{4-[2-(4-isobutylpiperazin-1-yl)-2-oxoethyl]piperazin-1-yl}-2-benzofuran-1(3H)-one]
CC(C)CN1CCN(C(=O)CN2CCN(c3ccc4c(c3)CCC4=O)CC2)CC1 [Compound 1162, 5-{4-[2-(4-isobutylpiperazin-1-yl)-2-oxoethyl]piperazin-1-yl}indan-1-one]
O=C1CCCc2cc(N3CCN(CC(=O)N4CCN(C5CCC5)CC4)CC3)ccc21 [Compound 1165, 6-{4-[2-(4-cyclobutylpiperazin-1-yl)-2-oxoethyl]piperazin-1-yl}-3,4-dihydronaphthalen-1(2H)-one]
O=C(NC1CCCC1)c1ccc(N2CCN(CC(=O)N3CCN(C4CCC4)CC3)CC2)nn1 [Compound 1166, 6-{4-[2-(4-cyclobutylpiperazin-1-yl)-2-oxoethyl]piperazin-1-yl}-N-cyclopentylpyridazine-3-carboxamide]
CNC(=O)c1ccc(N2CCN(CC(=O)N3CCN(C4CCC4)CC3)CC2)nc1 [Compound 1167, 6-{4-[2-(4-cyclobutylpiperazin-1-yl)-2-oxoethyl]piperazin-1-yl}-N-methylnicotinamide]
CCN(C(=O)c1ccc(N2CCN(CC(=O)N3CCN(C4CCC4)CC3)CC2)nc1)C(C)C [Compound 1168, 6-{4-[2-(4-cyclobutylpiperazin-1-yl)-2-oxoethyl]piperazin-1-yl}-N-ethyl-N-isopropylnicotinamide]
CC(C)N(C)C(=O)c1ccc(N2CCN(CC(=O)N3CCN(C4CCC4)CC3)CC2)nc1 [Compound 1169, 6-{4-[2-(4-cyclobutylpiperazin-1-yl)-2-oxoethyl]piperazin-1-yl}-N-isopropyl-N-methylnicotinamide]
CN(C(=O)c1ccc(N2CCN(CC(=O)N3CCN(C4CCC4)CC3)CC2)nc1)C1CCCCC1 [Compound 1170, 6-{4-[2-(4-cyclobutylpiperazin-1-yl)-2-oxoethyl]piperazin-1-yl}-N-cyclohexyl-N-methylnicotinamide]
CCN(C(=O)c1ccc(N2CCN(CC(=O)N3CCN(C4CCC4)CC3)CC2)nc1)C1CCCCC1 [Compound 1171, 6-{4-[2-(4-cyclobutylpiperazin-1-yl)-2-oxoethyl]piperazin-1-yl}-N-cyclohexyl-N-ethylnicotinamide]
COCCN(C(=O)c1ccc(N2CCN(CC(=O)N3CCN(C4CCC4)CC3)CC2)nc1)C(C)C [Compound 1172, 6-{4-[2-(4-cyclobutylpiperazin-1-yl)-2-oxoethyl]piperazin-1-yl}-N-isopropyl-N-(2-methoxyethyl)nicotinamide]
CCC(C)CNC(=O)c1ccc(N2CCN(CC(=O)N3CCN(C4CCC4)CC3)CC2)nc1 (centres unmarked) [Compound 1173, 6-{4-[2-(4-cyclobutylpiperazin-1-yl)-2-oxoethyl]piperazin-1-yl}-N-(2-methylbutyl)nicotinamide]
CCNC(=O)c1ccc(N2CCN(CC(=O)N3CCN(C4CCC4)CC3)CC2)nc1 [Compound 1174, 6-{4-[2-(4-cyclobutylpiperazin-1-yl)-2-oxoethyl]piperazin-1-yl}-N-ethylnicotinamide]
CCCNC(=O)c1ccc(N2CCN(CC(=O)N3CCN(C4CCC4)CC3)CC2)nc1 [Compound 1175, 6-{4-[2-(4-cyclobutylpiperazin-1-yl)-2-oxoethyl]piperazin-1-yl}-N-propylnicotinamide]
O=C(NCC1CC1)c1ccc(N2CCN(CC(=O)N3CCN(C4CCC4)CC3)CC2)nc1 [Compound 1176, 6-{4-[2-(4-cyclobutylpiperazin-1-yl)-2-oxoethyl]piperazin-1-yl}-N-(cyclopropylmethyl) nicotinamide]
CC(C)CNC(=O)c1ccc(N2CCN(CC(=O)N3CCN(C4CCC4)CC3)CC2)nc1 [Compound 1177, 6-{4-[2-(4-cyclobutylpiperazin-1-yl)-2-oxoethyl]piperazin-1-yl}-N-isobutylnicotinamide]
CCCCCNC(=O)c1ccc(N2CCN(CC(=O)N3CCN(C4CCC4)CC3)CC2)nc1 [Compound 1178, 6-{4-[2-(4-cyclobutylpiperazin-1-yl)-2-oxoethyl]piperazin-1-yl}-N-pentylnicotinamide]
CC(C)CCNC(=O)c1ccc(N2CCN(CC(=O)N3CCN(C4CCC4)CC3)CC2)nc1 [Compound 1179, 6-{4-[2-(4-cyclobutylpiperazin-1-yl)-2-oxoethyl]piperazin-1-yl}-N-(3-methylbutyl)nicotinamide]
O=C(NCC(F)(F)F)c1ccc(N2CCN(CC(=O)N3CCN(C4CCC4)CC3)CC2)nc1 [Compound 1180, 6-{4-[2-(4-cyclobutylpiperazin-1-yl)-2-oxoethyl]piperazin-1-yl}-N-(2,2,2-trifluoroethyl) nicotinamide]
O=C(NC1CCCCC1)c1ccc(N2CCN(CC(=O)N3CCN(C4CCC4)CC3)CC2)nc1 [Compound 1181, 6-{4-[2-(4-cyclobutylpiperazin-1-yl)-2-oxoethyl]piperazin-1-yl}-N-cyclohexylnicotinamide]
